Test results reported in PubChem BioAssay (NCI).
Values joined by “and” are separate entries in the source; they are usually repeats but may differ in a detail not shown here. Identical values can stand only once.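 Values below derive from 48-hour exposures of cells grown in 96-well plates, with endpoints linearly interpolated between the two concentrations bracketing the appropriate inhibition level. The concentration for 50% growth inhibition is given as GI50. Definition used: TGI = concentration required for complete inhibition of growth.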

Key:
Assay in all cases: NCI-60 cell line screen, 48 h
BT-549 breast = system: BT-549 breast
COLO 205 colon = system: COLO 205 colon
DU-145 prostate = system: DU-145 prostate
IGROV1 ovarian = system: IGROV1 ovarian
OVCAR-3 ovarian = system: OVCAR-3 ovarian
OVCAR-4 ovarian = system: OVCAR-4 ovarian
SF-268 CNS = system: SF-268 CNS
SR leukemia = system: SR leukemia
T-47D breast = system: T-47D breast
U251 CNS = system: U251 CNS

Compound | GI50 (BT-549 breast) | TGI (BT-549 breast) | GI50 (COLO 205 colon) | TGI (COLO 205 colon) | GI50 (DU-145 prostate) | TGI (DU-145 prostate) | GI50 (IGROV1 ovarian) [µM] | TGI (IGROV1 ovarian) | GI50 (OVCAR-3 ovarian) | TGI (OVCAR-3 ovarian) | GI50 (OVCAR-4 ovarian) | TGI (OVCAR-4 ovarian) | GI50 (SF-268 CNS) | TGI (SF-268 CNS) | GI50 (SR leukemia) | TGI (SR leukemia) | GI50 (T-47D breast) [µM] | TGI (T-47D breast) | GI50 (U251 CNS) | TGI (U251 CNS)
CN(C)C(=S)Sc1ccc([N+](=O)[O-])cc1[N+](=O)[O-] | 3.22 µM | 9.93 µM | 0.8 µM | 3.02 µM | 2.59 µM | 6.89 µM | 1.26 | 13.1 µM | 0.99 µM | 2.49 µM | 1.61 µM | 13.9 µM | 3.32 µM | 15.4 µM | 0.296 µM | 16.8 µM | 1.56 | 3.75 µM | 1.58 µM | 8.97 µM
Cc1ccc(Nc2oc(-c3ccccc3)nc2[P+](c2ccccc2)(c2ccccc2)c2ccccc2)cc1 | 1.41 µM | 2.92 µM | 1.33 µM | 3.1 µM | 1.34 µM | 4.16 µM | 0.889 | 2.37 µM | 0.299 µM | 1 µM | 0.357 µM | 2.07 µM | 1.56 µM | 4.9 µM | 0.698 µM | 2.44 µM | 0.43 | 2.33 µM | 0.538 µM | 1.71 µM
COC(=O)c1ccc2c(c1)/C(=C\c1cc(Br)c(O)c(Br)c1)C(=O)N2 | 10.6 µM | > 25 µM | 6.8 µM | > 25 µM | 7.15 µM | > 25 µM | 7.29 | > 25 µM | 8.14 µM | > 25 µM | 7.96 µM | > 25 µM | 10.1 µM | > 25 µM | 8.11 µM | > 25 µM | 8.72 | > 25 µM | 6.59 µM | > 25 µM
O=C(NNc1ccccc1)C(=O)NNc1ccccc1 | 42.4 µM | > 100 µM | 2.73 µM | 48.5 µM | 20.8 µM | > 100 µM | > 100 | > 100 µM | 17.7 µM | > 100 µM | 1.83 µM | > 100 µM | 1.63 µM | > 100 µM | 0.919 µM | > 100 µM | 0.52 | > 100 µM | > 100 µM | > 100 µM
CCOC(=O)c1c(-c2ccc(OC)cc2)c(C#N)c2c(C#N)c(N)nn2c1N | 2.65 µM | 28.1 µM | 2.8 µM | 9.98 µM | 4.93 µM | > 100 µM | 3.48 | > 100 µM | 3.28 µM | 14.2 µM | 6.11 µM | 96.7 µM | 5.39 µM | 73.7 µM | 2.05 µM | > 100 µM | 2.93 | 33.1 µM | 4.19 µM | 23.7 µM
CN(C)C/C=C/C(=O)Nc1cc2c(Nc3ccc(F)c(Cl)c3)ncnc2cc1O[C@H]1CCOC1 | 2.28 µM and 2.18 µM | 9.6 µM and > 10 µM | 0.998 µM and 0.887 µM | 3.09 µM and > 5.59 µM | 0.884 µM and 0.244 µM | 12.7 µM and > 10 µM |  | 12.5 µM and 2.35 µM | 0.232 µM and 0.229 µM | 2.54 µM and > 4.93 µM | 0.915 µM and 1.27 µM | 12.3 µM and > 10 µM | 2.03 µM and 1.82 µM | 8.58 µM and > 10 µM | 3.46 µM and 1.26 µM | 13.2 µM and 6.5 µM |  | 15.9 µM and > 10 µM | 0.58 µM and 1.35 µM | 2.96 µM and > 10 µM
CC12CCC3c4ccc(O)cc4CCC3C1C/C(=N\O)C2O (stereo not drawn) |  | > 100 µM |  | > 100 µM |  | > 100 µM |  | > 100 µM |  | > 100 µM |  | > 100 µM |  | > 100 µM |  | > 100 µM |  | > 100 µM |  | > 100 µM
C=COC(=O)N[C@H]1CCc2cc(OC)c(OC)c(OC)c2-c2ccc(SC)c(=O)cc21 |  | < 0.01 µM |  | < 0.01 µM |  | < 0.01 µM |  | > 100 µM |  | 0.0311 µM |  | 92.9 µM |  | 44.9 µM |  | > 15.5 µM |  | > 100 µM |  | 3.02 µM
Cc1ccc2c(C3C(C#N)=C(N)Oc4cc5ccccc5cc43)cc(=O)oc2c1 (stereo not drawn) | 3.67 µM | 64.3 µM | 2.88 µM | 17.3 µM | 3.79 µM | > 100 µM | 0.983 | > 100 µM | 0.375 µM | 10.7 µM | 11.4 µM | > 100 µM | 3.07 µM | > 100 µM | 0.525 µM | > 100 µM | 1.49 | 64 µM | 2.28 µM | > 100 µM
C=CCc1ccc(O)c(-c2ccc(O)c(CC=C)c2)c1 | 13.2 µM | 27.5 µM | 18.5 µM | 34.1 µM | 15.8 µM | 30.9 µM | 5.67 | 49.5 µM | 14.5 µM | 30.6 µM | 15.5 µM | 35.8 µM | 10.8 µM | 28 µM | 14.8 µM | > 100 µM | 20.3 | > 53.9 µM | 14.3 µM | 31.8 µM
CN(C)c1ccc(N=Nc2ccccn2)c(O)c1 | 0.391 µM | > 100 µM | 0.345 µM | > 34.8 µM | 0.481 µM | > 100 µM | 0.317 | > 100 µM | 0.3 µM | > 100 µM | 0.164 µM | 24.6 µM | 0.318 µM | > 100 µM | 0.123 µM | > 100 µM | 0.419 | > 49.1 µM | 0.258 µM | > 100 µM
CCc1ccc(/C=C/c2ccc(O)c3ncccc23)[n+](C)c1 | 15.1 µM | > 100 µM | 8.07 µM | > 89.8 µM | 4.96 µM | > 100 µM | 11.4 | > 100 µM | 0.671 µM | > 23.4 µM | 5.6 µM | > 100 µM | 0.749 µM | > 100 µM | 2.76 µM | > 25.9 µM | 1.66 | > 100 µM | 0.661 µM | > 100 µM
C[C@@]12CCC[C@@](C)(C(=O)O)C1CC[C@]13CC(=O)[C@](CO)(C1)[C@@H](O)CC32 (stereo partly drawn) | > 100 µM | > 100 µM | > 100 µM | > 100 µM | > 100 µM | > 100 µM | > 100 | > 100 µM | > 100 µM | > 100 µM | > 100 µM | > 100 µM | > 100 µM | > 100 µM | > 100 µM | > 100 µM | > 100 | > 100 µM | > 100 µM | > 100 µM
Nc1c(C(=O)c2ccccc2)cnn1-c1ccc(F)cc1 | > 25 µM | > 25 µM | > 25 µM | > 25 µM | > 25 µM | > 25 µM | > 25 | > 25 µM | > 25 µM | > 25 µM | > 25 µM | > 25 µM | > 25 µM | > 25 µM | > 25 µM | > 25 µM | > 25 | > 25 µM | > 25 µM | > 25 µM
